From patent publication US20220313708A1, “COMBINATION PRODUCT CONTAINING LIMONOID COMPOUND AND SGLT-2 INHIBITOR” (ZHEJIANG YANGSHENGTANG INSTITUTE OF NATURAL MEDICATION CO., …, priority 2019, published 2022)

Tested on: mouse type II diabetes model with pancreatic islet damage and obesity
Test: Blood glucose in mouse type II diabetes model with pancreatic islet damage and obesity (STZ + high-fat diet, Example 5, tofogliflozin)
Type: in vivo
Settings: STZ + high-fat diet ICR mice; single agent 0.5 g/kg per day by gavage, two weeks; 1 h after last administration; mean ± SD
Text: In this example, a mouse model of type II diabetes with pancreatic islet damage and obesity was established by multiple modeling ICR mice with a small dose of streptozotocin (STZ), following with continuous high-fat diets (referring to literature: Zhang Jiyuan et al, Study on the effect of three plant extracts on improving glucose and lipid metabolism in type 2 diabetic mice, Food and Machinery, 2016, 32 (12): 142-147). […]
Experimental grouping: 15 male mice were randomly selected as the normal control group, and the remaining mice were subjected to a high-fat diet (high-fat diet formula: cholesterol 1%, egg yolk powder 10%, lard oil 10%, and basic feed 79%, for establishing an obesity mouse model) for consecutive 4 weeks and intraperitoneal injection of STZ at a dose of 35 mg/kg for three consecutive days. After one week, the mice were subject to 24 hours of fasting and water deprivation, their fasting blood glucose was measured, and the mice with a blood glucose level of 15 to 25 mmol/L were selected and undifferentiatedly grouped and used in the experiment, continuously subjected to the high-fat diet, 15 mice in each group, and subjected to blood sampling and detection of indicators after 2 weeks of administration. […]

CCc1ccc(Cc2ccc3c(c2)[C@]2(OC3)O[C@H](CO)[C@@H](O)[C@H](O)[C@H]2O)cc1 [Tofogliflozin, tofogliflozin]
Blood glucose value: 10.1 ± 2.7 mmol/L
